PubChem BioAssay (NCI)
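A five-concentration, 48-hour dose response in 96-well plates underlies each endpoint, interpolated linearly between surrounding concentrations. TGI marks complete inhibition of growth.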

Experiments:
Assay in all cases: NCI anticancer screen, dose series, 48 h
[1] = tested on: HL-60(TB) leukemia
[2] = tested on: OVCAR-8 ovarian
[3] = tested on: COLO 205 colon
[4] = tested on: SK-MEL-28 melanoma
[5] = tested on: EKVX NSCLC
[6] = tested on: U251 CNS
[7] = tested on: SF-268 CNS
[8] = tested on: NCI-H522 lung
[9] = tested on: UACC-62 melanoma
[10] = tested on: DU-145 prostate

SMILES	TGI [1] [µM]	TGI [2] [µM]	TGI [3] [µM]	TGI [4] [µM]	TGI [5] [µM]	TGI [6] [µM]	TGI [7] [µM]	TGI [8] [µM]	TGI [9] [µM]	TGI [10] [µM]
COc1nc(N)c(C(=O)CCl)c(=O)n1C	5.61	52.8	30.1	26.4	31.7	29.9	55.2	–	–	–
CC(N)Cc1ccc(C(=O)Cl)cc1 (stereo not drawn)	–	> 100	> 100	> 100	> 100	> 100	> 100	> 100	> 100	–
CN1CCN([C@H]2C[C@H]3[C@@H]4CC=C5C[C@@H](O)CC[C@]5(C)[C@H]4CC[C@]3(C)C2=O)CC1	> 100	> 100	> 100	> 100	> 100	> 100	> 100	> 100	> 100	–
N#CN=C(N(Cc1ccccc1)Cc1ccccc1)N(Cc1ccccc1)Cc1ccccc1	83.8	> 100	> 100	–	> 100	–	> 100	> 100	> 100	–
N.N.N.N.O=[N+]([O-])[O-].[Co+3].[N-]=[N+]=[N-].[N-]=[N+]=[N-]	> 100	> 100	> 100	> 100	> 100	> 100	> 100	> 100	> 100	–
Cc1cn(C2CC(N(O)C(N)=O)C(CO)O2)c(=O)[nH]c1=O (stereo not drawn)	–	> 100	> 100	> 100	–	> 100	> 100	> 100	> 100	> 100
CCc1ccc(CCN2CCCCC2)nc1	–	> 100	> 100	> 100	> 100	> 100	> 100	> 100	> 100	> 100
CCN(CC)CCC(=O)Nc1ccc2c(c1)C(=O)c1ccc(NC(=O)CCN(CC)CC)cc1C2=O	16.7	18	14.4	24.6	15.1	21.2	18.9	23.5	22.3	–
O=C1OCC(O)=C1C(c1ccc(Cl)cc1)c1cc2c(cc1O)OCO2 (stereo not drawn)	> 100	–	> 100	> 100	> 100	–	> 100	–	> 100	> 100
